Results on 24 compounds are retold here after patent publication US10005767B2, “Compositions and methods for inhibition of the JAK pathway” (Rigel Pharmaceuticals, Inc., priority 2009, dated 2018).

By IC50 is commonly meant the concentration at which inhibition is half-maximal.

SMILES strings stand for the structures.

One experiment relates to human primary T-cells, IL-2 stimulated proliferation (JAK-1 and JAK-3 dependent; reported as JAK3 activity). Briefly: Human primary T-cell proliferation stimulated by IL-2 (Example 3). The experiment is classed as cell-based. The settings on record: Homo sapiens, T-cell, tested under conditions described in Example 3 (IL-2 stimulated human primary T-cell proliferation); read-out: ability to inhibit JAK3 activity, IC50 range (Table V). In a few lines: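 Peripheral-blood human T-cells pre-activated via TCR/CD28, IL-2-starved overnight, then cultured 72 h at 37 °C with compound in Yssel's medium containing IL-2 (80 U/mL in cell suspension). Proliferation read as viable-cell ATP by CellTiter-Glo luminescence; reduction versus control taken as JAK pathway inhibition.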
`Cc1cnc(Nc2ccc(N3CC4CN(C)CC4C3)nc2)nc1Nc1ccc2oc(=O)[nH]c2c1` (stereo not drawn) [II-120, 5-methyl-N2-[2-(3-methyl-3,7-diazabicyclo[3.3.0]octan-7-yl)pyridin-5-yl]-N4-(2-oxo-2,3-dihydro-1,3-benzoxazol-5-yl)-2,4-pyrimidinediamine]: the IC50 is less than 500 nM.

Regarding `Cc1cnc(Nc2ccc(C(=O)O)c(C(F)(F)F)c2)nc1Nc1ccc2oc(=O)[nH]c2c1` [Compound I-222, 4-(5-methyl-4-(2-oxo-2,3-dihydrobenzo[d]oxazol-5-ylamino)pyrimidin-2-ylamino)-2-(trifluoromethyl)benzoic acid], the IC50 was 500 to 5000 nM.

Regarding `Cc1cnc(Nc2cnc(C3CC4CCC(C3)N4C(=O)C(F)(F)F)c(C)c2)nc1Nc1ccc2oc(=O)[nH]c2c1` (stereo not drawn) [II-69, 5-(5-methyl-2-(5-methyl-6-(8-(2,2,2-trifluoroacetyl)-8-aza-bicyclo[3.2.1]octan-3-yl)pyridin-3-ylamino)pyrimidin-4-ylamino)benzo[d]oxazol-2(3H)-one], the IC50 was less than 500 nM.

For the compound `Cc1cnc(Nc2ccc(C(C)(C)C)cc2)nc1Nc1ccc2oc(=O)[nH]c2c1` [Compound I-420, 5-(2-(4-tert-butylphenylamino)-5-methylpyrimidin-4-ylamino)benzo[d]oxazol-2(3H)-one], the IC50 was less than 500 nM.

For `Cc1cnc(Nc2cccc(C)c2C)nc1Nc1ccc2oc(=O)[nH]c2c1` [Compound I-500, 5-(2-(2,3-dimethylphenylamino)-5-methylpyrimidin-4-ylamino)benzo[d]oxazol-2(3H)-one], the IC50 fell in the range of 500 to 5000 nM.

Consider `Cc1cnc(Nc2ccc(S(C)(=O)=O)nc2)nc1Nc1ccc2oc(=O)[nH]c2c1` [II-43, 5-[2-(6-Methanesulfonyl-pyridin-3-ylamino)-5-methyl-pyrimidin-4-ylamino]-3H-benzooxazol-2-one], for which the IC50 is less than 500 nM.

With `Cc1cnc(Nc2ccc(C(=O)N3CCN(CC4CC4)CC3)nc2)nc1Nc1ccc2oc(=O)[nH]c2c1` [II-46, 5-{2-[6-(4-Cyclopropylmethyl-piperazine-1-carbonyl)-pyridin-3-ylamino]-5-methyl-pyrimidin-4-ylamino}-3H-benzooxazol-2-one], the IC50 lay in the range of 500 to 5000 nM.

`Cc1cnc(Nc2ccc(N3CCC4CCC3N4C)cc2)nc1Nc1ccc2oc(=O)[nH]c2c1` (stereo not drawn) [Compound I-123, N4-(benzo[d]oxazol-2(3H)-on-5-yl)-N2-(4-(8-methyl-2,8-diazabicyclo[3.2.1]octan-2-yl)phenyl)-5-methylpyrimidine-2,4-diamine]: the IC50 is less than 500 nM.

Consider `Cc1cnc(Nc2ccc3c(c2)OC(C)(C)O3)nc1Nc1ccc2oc(=O)[nH]c2c1` [IV-17, 5-[2-(2,2-Dimethyl-benzo[1,3]dioxol-5-ylamino)-5-methyl-pyrimidin-4-ylamino]-3H-benzooxazol-2-one], for which the IC50 was less than 500 nM.

As to `Cc1cnc(Nc2cccc(S(=O)(=O)C3CCCC3)c2)nc1Nc1ccc2oc(=O)[nH]c2c1` [Compound I-157, 5-[2-(3-Cyclopentanesulfonyl-phenylamino)-5-methyl-pyrimidin-4-ylamino]-3H-benzooxazol-2-one], the IC50 is less than 500 nM.

For the compound `Cc1cnc(Nc2ccc3c(c2)C=CCNC3=O)nc1Nc1ccc2oc(=O)[nH]c2c1` [IV-18, (Z)-5-(5-methyl-2-(1-oxo-2,3-dihydro-1H-benzo[c]azepin-7-ylamino)pyrimidin-4-ylamino)benzo[d]oxazol-2(3H)-one], the IC50 was less than 500 nM.

In the case of `Cc1cnc(Nc2cc(C(C)NC3CC3)cc(C(F)(F)F)c2)nc1Nc1ccc2oc(=O)[nH]c2c1` (stereo not drawn) [Compound I-461, 5-(2-(3-(1-(cyclopropylamino)ethyl)-5-(trifluoromethyl)phenylamino)-5-methylpyrimidin-4-ylamino)benzo[d]oxazol-2(3H)-one], the IC50 is less than 500 nM.

For `Cc1cnc(Nc2ccc(OC(F)(F)F)c(C(F)(F)F)c2)nc1Nc1ccc2oc(=O)[nH]c2c1` [Compound I-161, 5-[5-Methyl-2-(4-trifluoromethoxy-3-trifluoromethyl-phenylamino)-pyrimidin-4-ylamino]-3H-benzooxazol-2-one], the IC50 is less than 500 nM.

Consider `Cc1cnc(Nc2cnc(N3CC4CN(C(=O)OC(C)(C)C)CC4C3)c(F)c2)nc1Nc1ccc2oc(=O)[nH]c2c1` (stereo not drawn) [II-48, 5-{3-Fluoro-5-[5-methyl-4-(2-oxo-2,3-dihydro-benzooxazol-5-ylamino)-pyrimidin-2-ylamino]-pyridin-2-yl}-hexahydro-pyrrolo[3,4-c]pyrrole-2-carboxylic acid tert-butyl ester], for which the IC50 is less than 500 nM.

As for `Cc1cnc(Nc2ccc(N(C)[C@@H]3CCCN(Cc4ccccc4)C3)nc2)nc1Nc1ccc2oc(=O)[nH]c2c1` [II-106, (R)-5-(2-(6-((1-benzylpiperidin-3-yl)(methyl)amino)pyridin-3-ylamino)-5-methylpyrimidin-4-ylamino)benzo[d]oxazol-2(3H)-one], the IC50 is less than 500 nM.

Still in this experiment, the particulars now being: tested under conditions described in Example 3 (IL-2 stimulated human primary T-cell proliferation); read-out: ability to inhibit JAK3 activity, IC50 range (Table V).
With `Cc1cnc(Nc2ccc(S(N)(=O)=O)cc2)nc1Nc1ccc2oc(=O)[nH]c2c1` [Compound I-15], the IC50 was less than 500 nM.

In the case of `Cc1cnc(Nc2cccc(S(C)(=O)=O)c2)nc1Nc1ccc2c(c1)n(C)c(=O)n2C` [Compound I-36, N4-(1,3-dimethylbenzimidazolin-2-on-5-yl)-N2-((3-methylsulfonyl)phenyl)-5-methylpyrimidine-2,4-diamine], the IC50 was less than 500 nM.

`Cc1cnc(Nc2ccc(N3CCCC3)c(C#N)c2)nc1Nc1ccc2oc(=O)[nH]c2c1` [Compound I-310, N2-[3-cyano-4-(pyrrolidin-1-yl)]phenyl-5-methyl-N4-(2-oxo-2,3-dihydro-1,3-benzoxazol-5-yl)-2,4-pyrimidinediamine]: the 50% inhibitory concentration (IC50) is less than 500 nM.

Turning to `Cc1cnc(Nc2cc(F)c(OC(F)F)c(F)c2)nc1Nc1ccc2oc(=O)[nH]c2c1` [Compound I-388, N2-(3,5-difluoro-4-difluoromethoxy)phenyl-5-methyl-N4-(2-oxo-2,3-dihydro-1,3-benzoxazol-5-yl)-2,4-pyrimidinediamine], the IC50 was less than 500 nM.

On to `Cc1cc(Nc2ncc(C)c(Nc3ccc4oc(=O)[nH]c4c3)n2)cc(OC(F)F)c1` [Compound I-516, N2-(3-difluoromethoxy-5-methyl)phenyl-5-methyl-N4-(2-oxo-2,3-dihydro-1,3-benzoxazol-5-yl)-2,4-pyrimidinediamine], for which the IC50 was less than 500 nM.

On to `COc1cc(Nc2ncc(C)c(Nc3ccc4oc(=O)[nH]c4c3)n2)ccc1C(F)(F)F` [Compound I-354, N2-(3-methoxy-4-trifluoromethyl)phenyl-5-methyl-N4-(2-oxo-2,3-dihydro-1,3-benzoxazol-5-yl)-2,4-pyrimidinediamine], for which the IC50 is less than 500 nM.

As to `Cn1c(=O)oc2cc(Nc3nc(Nc4ccc(NS(C)(=O)=O)cc4)ncc3F)ccc21` [Compound I-62, N2-((4-methylsulfonylamino)phenyl)-N4-(3-methyl-2-oxo-2,3-dihydrobenzo[d]oxazol-6-yl)-5-fluoropyrimidine-2,4-diamine], the IC50 lay in the range of 500 to 5000 nM.

With `CN1CCN(c2ccc(Nc3ncc(F)c(Nc4ccc5c(c4)n(C)c(=O)n5C)n3)cn2)CC1` [II-21, N4-(1,3-dimethylbenzimidazolin-2-on-5-yl)-N2-[2-(4-methylpiperazino)pyridin-5-yl]-5-fluoropyrimidine-2,4-diamine], the IC50 was in the range of 500 to 5000 nM.

Turning to `Cc1cnc(Nc2cccc(S(C)(=O)=O)c2)nc1Nc1ccc2oc(=O)[nH]c2c1` [Compound I-16], the IC50 is less than 500 nM.
